Measured values as given in PMC3259047 (Molecular Neurodegeneration, 2011).
Like-named read-outs stand apart in the source and are kept apart here.

How the values were obtained:
[1] = Octanol-water partition coefficient (logPoct) by fluorometry; format: physicochemical; settings: n-octanol/distilled water, 100 μM, room temperature, mean ± S.E.M, three independent experiments
Procedure: Octanol-water partition coefficients (logPoct) were determined as described previously with modification. […] The samples were incubated at room temperature with a brief vortex every 5 min for 60 minutes. After centrifugation at 2,000 g for 10 min, octanol and water layers were separately transferred to microcentrifuge tubes. Concentrations were determined by fluorometry at an excitation wave length of 530/25 nm and an emission wave length of 590/30 nm using an ELISA reader (Biotek, Winooski, VT).

neuritic plaques = target: T1, neuritic plaques (Homo sapiens, UniProt P05067); assay: In situ saturation binding assay in fixed Tg2576 brain sections, fluorescence on neuritic plaques; design: species or system Tg2576 mice; settings: 16 month-old Tg2576 fixed brain sections, intrinsic fluorescence, 30 min room temperature; read-out: Amyloid binding affinity (KD) on neuritic plaques
T1 construct: Aβ1-42 (the predominant species in neuritic plaques); from tissue; host or cells: brain of 16-month-old Tg2576 transgenic mice
T1 sequence (P05067 672-713 limits assumed): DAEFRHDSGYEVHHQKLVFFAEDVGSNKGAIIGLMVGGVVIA
Procedure: (§1) Figure 5 In situ binding assay in Tg2576 brain sections. Sixteen month-old Tg2576 mice were perfused with PBS and brains were post-fixed in 4% paraformaldehyde. Coronal brain sections (40 μm thick) were washed three times with PBS and incubated with various concentrations of test compounds (4 sections/concentration; 6 concentrations/compound) at room temperature for 30 min. Brain sections were washed twice with PBS and 50% ethanol in PBS then cover-slipped. […] Scale bar: 100 μm. Fluorescent images of the sensorimotor cortex were taken and the fluorescent intensity on CAA (B) and neuritic plaques (C) was quantified. Saturation binding curves were plotted to obtain the binding affinity (KD) values (see Table 2).

[2] = system: cerebrovascular Aβ deposits and neuritic plaques; assay: Fluorescent staining of fixed aged Tg2576 brain sections; format: binding; settings: fixed brain sections of aged Tg2576 mice; 1 μM resorufin, 2 μM methoxy-X34
Procedure: Scale bars in A-D: 100 μm.
Tg2576 and littermate wild-type mice at 12-16 months of age were anesthetized with isoflurane and transcardially perfused with PBS. Brains were removed, post-fixed overnight in 4% paraformaldehyde in 0.1 M phosphate buffer (pH 7.4) at 4°C, and preserved in 30% sucrose in 0.1 M phosphate buffer at 4°C. Brains were sectioned coronally (40 μm) on a freezing sliding microtome as described previously. […] Brain sections were washed three times with PBS and once with 50% ethanol in PBS for 5 min each. After three more PBS washes, brain sections were mounted on a slide glass and cover-slipped with Vectashield mounting media (Vector laboratories, Burlingame, CA). Fluorescent staining was visualized using a Nikon Eclipse ME600 digital video microscopy system (Nikon Instruments Inc., Melville, NY) and MetaMorph imaging software (Molecular Devices, Sunnyvale, CA). Cross-sectional area covered by CAA vessels and parenchymal plaques were quantified using ImageJ software (National Institutes of Health, Bethesda, MD) as previously described.

[3] = target: CAA deposits (cerebrovascular Aβ aggregates) (Homo sapiens, UniProt P05067); assay: In situ saturation binding assay in fixed Tg2576 brain sections, fluorescence on CAA; design: species or system Tg2576 mice; settings: 16 month-old Tg2576 fixed brain sections, intrinsic fluorescence, 30 min room temperature; read-out: Amyloid binding affinity (KD) on CAA (converted)
Sequence of CAA deposits (cerebrovascular Aβ aggregates) (P05067 672-711 limits assumed): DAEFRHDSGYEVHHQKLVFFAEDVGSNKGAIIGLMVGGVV
Procedure: as §1

[4] = design: method as in Klunk et. al. [51]; settings: ref Klunk et. al. [51]; cited from earlier work
[5] = system: 3D6-positive cerebral arterioles and neuritic plaques; assay: Fluorescent staining of paraffin-embedded human AD brain sections (3D6 co-labeling); format: binding; settings: human AD cortical sections, 1 μM resorufin
[6] = system: CAA amyloid deposits and neuritic plaques; assay: In vivo live imaging through closed cranial window in aged Tg2576 mice; settings: 6 mg/kg i.p. per legend and methods

Row | logPoct [1] | Kd (neuritic plaques) [nM] | Kd [3] [nM] | logP [1] | Crossing of the BBB (CAA deposits; mouse, in vivo) | Structure (SMILES) | logPoct ([1]; listed as benzyloxy-resorufin) | Binding to CAA-laden vessels versus neuritic plaques (fluorescent staining) [2] | logPoct [4] | Staining of 3D6-positive amyloid deposits [5] | Visualization of CAA deposits after intravenous administration (CAA deposits; i.v. up to 50 mg/kg, aged Tg2576 mice (15 mo)) | Live fluorescent labeling of amyloid deposits by methoxy-X04 [6]
1 | 1.94 | > 10000 | 247 ± 135 | 1.94 ± 0.137 | – | CCOc1ccc2nc3ccc(=O)cc-3oc2c1 [Ethoxyresorufin, ethoxy-resorufin] | – | preferentially bound CAA-laden vessels but not neuritic plaques | – | – | – | –
2 | – | 219 | 325 | – | – | COc1cc(C=Cc2ccc(O)c(C(=O)O)c2)ccc1C=Cc1ccc(O)c(C(=O)O)c1 [Methoxy-X34, reference compound] | – | visualized both cerebrovascular Aβ deposits and neuritic plaques | 0.19 | – | – | –
3 | 0.43 | – | – | 0.427 ± 0.036 | failed to cross the BBB | O=c1ccc2nc3ccc(O)cc3oc-2c1 [Resorufin, 7-hydroxy-3H-phenoxazin-3-one] | – | strongly bind CAA-laden cerebral arterioles but not parenchymal neuritic plaques | – | marked resorufin-positive staining was noted in the 3D6-positive cerebral arterioles | failed to visualize CAA deposits | –
4 | – | – | – | – | – | COc1cc(/C=C/c2ccc(O)cc2)ccc1/C=C/c1ccc(O)cc1 [methoxy-X04] | – | – | – | – | – | labeled Aβ aggregates in both cerebral arteries and parenchymal neuritic plaques

Row | Structure (SMILES) | logPoct [1] | Kd (neuritic plaques) [nM] | Kd [3] [nM] | logP [1] | Crossing of the BBB (CAA deposits; mouse, in vivo) | logPoct ([1]; listed as benzyloxy-resorufin) | Binding to CAA-laden vessels versus neuritic plaques (fluorescent staining) [2] | logPoct [4] | Staining of 3D6-positive amyloid deposits [5] | Visualization of CAA deposits after intravenous administration (CAA deposits; i.v. up to 50 mg/kg, aged Tg2576 mice (15 mo)) | Live fluorescent labeling of amyloid deposits by methoxy-X04 [6]
5 | O=c1ccc2nc3ccc(OCc4ccccc4)cc3oc-2c1 [Benzyloxyresorufin, benzyloxy-resorufin] | 2.206 ± 0.104 | > 10000 | 473 ± 82 | – | – | 2.21 | preferentially bound CAA-laden vessels but not neuritic plaques | – | – | – | –
